Measured values from patent US20040053882A1, “Combination chemotherapy” (priority 2000, published 2004).
Where two headings read alike, the source gives them in different places. Blank lines part the entries; values can stand above or below the compound they belong to.

Columns and labels:
[1] = system: A2780 human ovarian carcinoma cell line; test: cells
Procedure: (§1) Growth inhibition (using the sulforhodamine B assay) was determined for ZDO473 alone, and combined either simultaneously or administered sequentially (following washing) for 24 hours with paclitaxel. The effect of the drug combinations was analysed using median effect analysis.

[2] = system: CH1 human ovarian carcinoma cell line; test: cells; conditions: read-out: IC50 growth inhibition
Procedure: as §1

[3] = system: A2780cisR acquired cisplatin resistant subline; test: Growth inhibition (sulforhodamine B assay), A2780cisR; format: cell-based, human; conditions: for IC50: A2780cisR, drug alone
Procedure: as §1

[4] = system: A2780 E6 (A2780 subline transfected with E6 human papillomavirus gene); test: Growth inhibition (sulforhodamine B assay), A2780E6; format: cell-based
41McisR ovarian line = conditions: resistance to cisplatin due to reduced uptake
[5] = monotherapy Phase I trial, interim results; cited from earlier work
human tumour xenografts = test: In-vivo studies in human tumour xenografts; conditions: compared with cisplatin
ADJ/PC6cisR tumour = test: Murine acquired cisplatin resistant tumour; conditions: tumour totally resistant to other platinum agents
[6] = system: cisplatin-resistant CH1 ovarian tumour xenograft; test: Cisplatin-resistant CH1 ovarian tumour xenograft; conditions: even when progressing on cisplatin treatment

Compound: Cc1ccccn1.N.[Cl-].[Cl-].[Pt+2] [ZDO473, (SP-4-3)-(cis-amminedichloro-[2-methylpyridine]platinum (II)]
IC50 ([1]; read-out: IC50 growth inhibition, A2780, 96 hour continuous exposure, drug alone): 3700 nM
IC50 ([2]; CH1, 96 hour continuous exposure, drug alone): 3300 nM
cross-resistance of A2780cisR ([3]; A2780cisR versus A2780): 4.2 fold
IC50 ([3]; 96 hour continuous exposure): 15600 nM
IC50 ([4]; 96 hour continuous exposure, drug alone): 8600 nM
recommended dose for phase II studies, initial (every 3 weeks): 120 mg/m^2
current recommended dose (patients who tolerate higher doses): 150 mg/m^2
antitumour activity in patients (small & non-small cell lung cancer, mesothelioma, head and neck, breast and ovarian cancers): Evidence of antitumour activity has been observed
ability to overcome cisplatin resistance (41McisR ovarian line): showed the ability to overcome resistance
dose-limiting toxicity [5]: bone marrow suppression
kidney or nerve toxicity [5]: no evidence of kidney or nerve toxicity
activity in human tumour xenografts (human tumour xenografts): at least comparable and in some cases superior to that of cisplatin
activity against acquired cisplatin resistant murine tumour (ADJ/PC6cisR tumour): some activity was seen
activity versus cisplatin-resistant xenograft [6]: Activity was retained

Compound: N.N.[Cl][Pt][Cl] [cisplatin, cis-dichlorodiammine platinum (II), reference compound]
acquired cisplatin resistance of subline ([3]; A2780cisR versus A2780): 15 fold

IC50 ([1]; Homo sapiens, A2780, read-out: IC50 growth inhibition): 2.5 nM
IC50 ([2]; Homo sapiens, Ovarian carcinoma cell): 3.1 nM
IC50 ([3]; Homo sapiens): 3.5 nM
IC50 ([4]; Homo sapiens, A2780/E6, drug alone): 20.8 nM
Compound: CC(=O)O[C@H]1C(=O)[C@@]2(C)[C@H]([C@H](OC(=O)c3ccccc3)[C@]3(O)C[C@H](OC(=O)[C@H](O)[C@@H](NC(=O)c4ccccc4)c4ccccc4)C(C)=C1C3(C)C)[C@]1(OC(C)=O)CO[C@@H]1C[C@@H]2O [Paclitaxel, paclitaxel, reference compound]
